Reference: ChEMBL document CHEMBL5120967, “Development of an Orally Active Small-Molecule Inhibitor of Receptor Activator of Nuclear Factor-κB Ligand” (J Med Chem, 2022)

How the values were obtained:
[1] = Anti-osteoporosis activity C57/BL6 mouse bone marrow macrophage cells assessed as inhibition of RANKL-induced osteoclastogenesis at 1 uM measured after 5 to 6 days in presence of M-CSF and RNKL by TRAP staining microscopic analysis; format: functional, BMDM; design: scale not given: the % may be the effect or the level left; conditions: time 5-6 day
[2] = Anti-osteoporosis activity C57/BL6 mouse bone marrow macrophage cells assessed as inhibition of RANKL-induced osteoclastogenesis at 0.1 uM measured after 5 to 6 days in presence of M-CSF and RNKL by TRAP staining microscopic analysis; format: functional, BMDM; design: scale not given: the % may be the effect or the level left; conditions: time 5-6 day
BMDM = test: Cytotoxicity against C57/BL6 mouse bone marrow macrophage cells assessed as reduction in cell viability at 10 uM incubated for 3 days by CCK8 assay; format: toxicity, cell-based; conditions: 72 h, time 3 day
[3] = AUC(0 to t) in OVX-induced C57/BL6 mouse model at 3 mg/kg, iv; format: ADME, organism-based; design: dose 3 mg/kg, route iv; conditions: female, in vivo
[4] = Half life in OVX-induced C57/BL6 mouse model at 3 mg/kg, iv; format: ADME, organism-based; conditions: female, in vivo
[5] = Clearance in OVX-induced C57/BL6 mouse model at 3 mg/kg, iv; format: ADME, organism-based; conditions: female, in vivo
[6] = Oral bioavailability in OVX-induced C57/BL6 mouse model; format: ADME, organism-based; conditions: female, in vivo
[7] = AUC(0 to t) in OVX-induced C57/BL6 mouse model at 5 mg/kg, po; format: ADME, organism-based; design: dose 5 mg/kg, route po; conditions: female, in vivo
[8] = Cmax in OVX-induced C57/BL6 mouse model at 5 mg/kg, po; format: ADME, organism-based; design: dose 5 mg/kg, route po; conditions: female, in vivo
[9] = Half life in OVX-induced C57/BL6 mouse model at 5 mg/kg, po; format: ADME, organism-based; conditions: female, in vivo

Structure (SMILES)	Activity [1]	Activity [2]	Cell viability (BMDM)	other results
Cc1cccc(C)c1NC(=O)c1cc2c([nH]c3ccccc32)c(CCc2ccc(N(C)C)cc2)n1	54.7%	36.7%	> 100%	–
O=C(Nc1nccs1)c1cc2c([nH]c3ccccc32)c(CCc2ccccc2)n1	27%	–	> 100%	–
Cc1cccc(C)c1NC(=O)c1cc2c([nH]c3ccccc32)c(CCc2ccc(N)cc2)n1	70.3%	11.4%	> 100%	–
O=C(Nc1cccnc1)c1cc2c([nH]c3ccccc32)c(CCc2ccccc2)n1	18.3%	–	> 100%	–
COc1cccc(CCc2nc(C(=O)Nc3c(C)cccc3C)cc3c2[nH]c2ccccc23)c1	82.3%	27.1%	> 100%	–
Cc1cccc(C)c1NC(=O)c1cc2c([nH]c3ccccc32)c(CCc2cccc(O)c2)n1	0%	–	> 100%	–
Cc1cccc(C)c1NC(=O)C(Cc1c[nH]c2ccccc12)NCCCc1ccccc1 (centres undefined)	32%	–	> 100%	AUC(0-t) [3]: 984 ng·h/mL; half-life [4]: 1.2 h; clearance [5]: 51 mL/min/kg; bioavailability [6]: 2.4%; AUC(0-t) [7]: 38.8 ng·h/mL; Cmax [8]: 10 ng/mL; half-life [9]: 0.9 h
Cc1cccc(C)c1NC(=O)c1cc2c([nH]c3ccccc32)c(CCc2ccccc2O)n1	36%	–	87.1%	–
Cc1cccc(C)c1NC(=O)c1cc2c([nH]c3ccccc32)c(CCC2CCCCC2)n1	52.8%	9.1%	> 100%	–
Cc1ccc(CCc2nc(C(=O)Nc3c(C)cccc3C)cc3c2[nH]c2ccccc23)cc1	77.6%	16.2%	> 100%	–
Cc1cccc(C)c1NC(=O)c1cc2c([nH]c3ccccc32)c(CCc2ccc(P(C)(C)=O)cc2)n1	81.6%	32.6%	> 100%	–
Cc1cccc(C)c1NC(=O)c1cc2c([nH]c3ccccc32)c(CCc2cccnc2)n1	–	–	51.2%	–
Cc1cccc(C)c1NC(=O)c1cc2c([nH]c3ccccc32)c(CCc2ccncc2)n1	79.1%	29.8%	> 100%	–
Cc1cccc(C)c1NC(=O)c1cc2c([nH]c3ccccc32)c(CCc2ccc(O)cc2)n1	23.8%	–	76.9%	–
Cc1cccc(C)c1NC(=O)c1cc2c([nH]c3ccccc32)c(CCc2cccc(F)c2)n1	54.7%	21%	> 100%	–
O=C(Nc1ccccn1)c1cc2c([nH]c3ccccc32)c(CCc2ccccc2)n1	36.1%	–	> 100%	–
Cc1cc2occ(CN(C)CCN(C)Cc3cn(-c4cccc(C(F)(F)F)c4)c4ccccc34)c(=O)c2cc1C	56.1%	18.4%	3.8%	–
O=C(c1cc2c([nH]c3ccccc32)c(CCc2ccccc2)n1)N1CCOCC1	32.6%	–	> 100%	–
Cc1cccc(C)c1NC(=O)c1cc2c([nH]c3ccccc32)c(CCc2ccc(C(F)(F)F)cc2)n1	72.5%	19.5%	> 100%	–
O=C(Nc1cc[nH]n1)c1cc2c([nH]c3ccccc32)c(CCc2ccccc2)n1	39.9%	–	> 100%	–
O=C(NCc1ccccc1)c1cc2c([nH]c3ccccc32)c(CCc2ccccc2)n1	0%	–	> 100%	–

Structure (SMILES)	Activity [1]	Activity [2]	Cell viability (BMDM)	other results
Cc1cccc(C)c1NC(=O)c1cc2c([nH]c3ccccc32)c(CCc2ccc(C(=O)O)cc2)n1	85.9%	37.6%	> 100%	–
O=C(NC1CCCCC1)c1cc2c([nH]c3ccccc32)c(CCc2ccccc2)n1	0%	–	> 100%	–
Cc1cccc(C)c1NC(=O)c1cc2c([nH]c3ccccc32)c(CCc2ncc[nH]2)n1	28.6%	–	> 100%	–
COc1ccccc1CCc1nc(C(=O)Nc2c(C)cccc2C)cc2c1[nH]c1ccccc12	83%	33.6%	> 100%	–
COc1ccc(CCc2nc(C(=O)Nc3c(C)cccc3C)cc3c2[nH]c2ccccc23)cc1	75.7%	29.3%	> 100%	–
Cc1cccc(C)c1NC(=O)c1cc2c([nH]c3ccccc32)c(CCc2ccc(C#N)cc2)n1	79.5%	16.5%	> 100%	–
O=C(NC1CCOCC1)c1cc2c([nH]c3ccccc32)c(CCc2ccccc2)n1	47.9%	–	> 100%	–
COC(=O)c1ccc(CCc2nc(C(=O)Nc3c(C)cccc3C)cc3c2[nH]c2ccccc23)cc1	77.6%	28.5%	99.6%	–
Cc1cccc(C)c1NC(=O)c1cc2c([nH]c3ccccc32)c(CCc2ccccc2F)n1	66.7%	26.7%	> 100%	–
Cc1cccc(C)c1NC(=O)c1cc2c([nH]c3ccccc32)c(CCc2ccc(Cl)cc2)n1	52.5%	11.3%	> 100%	–
O=C(Nc1ccncc1)c1cc2c([nH]c3ccccc32)c(CCc2ccccc2)n1	56.6%	18.4%	> 100%	–
Cc1cccc(C)c1NC(=O)c1cc2c([nH]c3ccccc32)c(CCc2nccs2)n1	–	–	71%	–
CNc1ccc(CCc2nc(C(=O)Nc3c(C)cccc3C)cc3c2[nH]c2ccccc23)cc1	37.9%	–	> 100%	–
Cc1cccc(C)c1NC(=O)c1cc2c([nH]c3ccccc32)c(CCc2ccc(F)cc2)n1	65.2%	28.2%	> 100%	–
Cc1cccc(C)c1NC(=O)c1cc2c([nH]c3ccccc32)c(CCc2cc(F)cc(F)c2)n1	35.2%	–	> 100%	–
O=C(NC1CC1)c1cc2c([nH]c3ccccc32)c(CCc2ccccc2)n1	0%	–	> 100%	–
Cl.O=C(NC1CCNCC1)c1cc2c([nH]c3ccccc32)c(CCc2ccccc2)n1	0%	–	47.9%	–
CC(=O)Nc1ccc(CCc2nc(C(=O)Nc3c(C)cccc3C)cc3c2[nH]c2ccccc23)cc1	55%	19%	> 100%	–
O=C(Nc1ncc[nH]1)c1cc2c([nH]c3ccccc32)c(CCc2ccccc2)n1	78.9%	10.7%	> 100%	–
Cc1cccc(C)c1NC(=O)c1cc2c([nH]c3ccccc32)c(CNc2ccccc2)n1	–	–	67.6%	–
Cn1cc(NC(=O)c2cc3c([nH]c4ccccc43)c(CCc3ccccc3)n2)cn1	0%	–	> 100%	–
